From US20070059260A1, “Benzyl-1,3-thiazolidine-2,4-dione compounds for promoting and/or inducing and/or stimulating the pigmentation of keratin materials and/or for limiting their depigmentation and/or whitening” (L'OREAL, priority 2005, published 2007)

Key:
[1] = molecular target: T1, Type-1 15-PGDH (Homo sapiens, UniProt P15428); test: Test on type-1 15-PGDH (spectrophotometric, NAD/PGE2, 340 nm); type: biochemical; settings: concentration reducing enzymatic activity of 15-PGDH by 50%; 37° C., pH 7.4 Tris buffer, 1.5 mM β-NAD, 50 μM Prostaglandin E2; read-out: IC50dh or % inhibition at 100 μM
T1 construct: made in house
T1 sequence (P15428 1-266): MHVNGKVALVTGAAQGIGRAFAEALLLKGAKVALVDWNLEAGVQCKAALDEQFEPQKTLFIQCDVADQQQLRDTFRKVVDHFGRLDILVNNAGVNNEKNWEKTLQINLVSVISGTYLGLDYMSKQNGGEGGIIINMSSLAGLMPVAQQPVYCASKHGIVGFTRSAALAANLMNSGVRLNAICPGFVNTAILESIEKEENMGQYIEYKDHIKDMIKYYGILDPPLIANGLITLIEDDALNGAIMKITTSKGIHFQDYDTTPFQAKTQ
Description: The enzyme 15-PGDH is obtained as described in FR 02/05067 filed in the name of L'Oreal, as a suspension in a medium adjusted to a concentration of 0.3 mg/mL and then blocked at −80° C. For the purposes of the test, this suspension is thawed and stored in ice.
In parallel, a 100 mM, pH 7.4 Tris buffer containing 0.1 mM of dithiothreitol (D5545, Sigma-Aldrich, L'isle D'Abeau Chesne, BP 701, 38297, Saint Quentin Fallavier), 1.5 mM of β-NAD (N6522, Sigma-Aldrich, L'isle D'Abeau Chesne, BP 701, 38297, Saint Quentin Fallavier), and 50 μM of Prostaglandin E2 (P4172, Sigma-Aldrich, L'isle D'Abeau Chesne, BP 701, 38297, Saint Quentin Fallavier) is prepared.
0.965 ml of this buffer (brought to 37° C. beforehand) is introduced into the cuvette of a spectrophotometer (Perkin-Elmer, Lambda 2) thermostatically maintained at 37° C., the measuring wavelength of which is set at 340 nm. 0.035 mL of enzymatic suspension at 37° C. is introduced into the cuvette concomitantly with the recording (corresponding to an increase in the optical density at 340 nm). The maximum reaction rate is recorded.
The test values (containing the compounds of formula (I)) are compared with the control value (without compound of formula (I)); the results indicated represent either the percentage inhibition of the enzymatic activity of 15-PGDH for a given concentration of compound of formula (I), or the concentration at which the compound of formula (I) reduces the enzymatic activity of 15-PGDH by 50%, namely IC50dh.

O=C1NC(=O)C(Cc2ccccc2Oc2ccccc2)S1 (centres unmarked) [Compound 3] showed an IC50 [1] of 2750 nM.
For CC(C)(C)c1ccc(Oc2cccc(CC3SC(=O)NC3=O)c2)cc1 (centres unmarked) [Compound 5], the IC50 [1] was 580 nM.
Compound CC(C)(C)c1ccc(Oc2ccccc2CC2SC(=O)NC2=O)cc1 (centres unmarked) [Compound 4, 5-[2-(4-tert-Butylphenoxy)benzyl]-1,3-thiazolidine-2,4-dione] has an IC50 [1] of 400 nM.
In the case of O=C1NC(=O)C(Cc2ccccc2Oc2ccccc2)S1 (centres unmarked) [Example 1, 5-(2-phenoxybenzyl)-1,3-thiazolidine-2,4-dione], the melting point is reported as 84 to 85 °C.
For O=C1NC(=O)C(Cc2ccccc2Oc2ccc(Cl)cc2Cl)S1 (centres unmarked) [Compound 2], the IC50 [1] was 1210 nM.
